Assay results published in PMC6724035, “Evaluation of Tumor-Targeting Properties of an Antagonistic Bombesin Analogue RM26 Conjugated with a Non-Residualizing Radioiodine Label Comparison with a Radiometal-Labelled Counterpart” (Pharmaceutics, 2019).
Where a SMILES comes first, the peptide text is derived from it. [ ]: non-standard residue; d: D form. Tyr(3-I) = N[C@@H](Cc1ccc(O)c(I)c1)C(=O)O; Sta = CC(C)C[C@H](N)[C@@H](O)CC(=O)O; AEEA = NCCOCCOCC(=O)O

Tests used:
in vivo = conditions: mouse, iv; for tissue to tissue ratio at 0.5 h / tissue to tissue ratio at 3 h / tissue to tissue ratio at 24 h: female, BALB/c nu/nu, total radioactivity; for tissue uptake at 0.5 h / tissue uptake at 3 h / tissue uptake at 24 h: 40 pmol, 40 pmol i.v.; for tissue uptake at 0.5 h: 0.5 h after injection; for tissue uptake at 3 h: 3 h after injection; for tissue uptake at 24 h: 24 h after injection
Procedure: (§1) Animal studies were planned and performed in agreement with EU Directive 2010/63/EU for animal experiments and Swedish national legislation concerning protection of laboratory animals. Experiments were approved by the Ethics Committee for Animal Research in Uppsala (C4/16, 26 February 2016). Biodistribution studies were performed in female BALB/C nu/nu mice purchased from Scanbur A/S (Karlslunde, Denmark). GRPR-expressing xenografts were established by subcutaneous injection of 5 × 10^6 PC-3 cells/mouse in the right hind leg of mice 3 weeks before the experiment. The animals were randomized into groups of four mice for each data point.
(§2) Mice were euthanized followed by dislocation of their neck at 0.5 h after injection and blood samples were collected by heart puncture. At 3 and 24 h after injection, mice were euthanized by an intraperitoneal injection of anaesthetic solution (20 µL of solution per gram of body weight: Ketalar, 10 mg/mL; Rompun, 1 mg/mL) followed by heart puncture. Salivary glands, thyroid, lung, liver, spleen, pancreas, stomach, small intestine, kidneys, tumour, muscle, and bone were collected and weighed. The organ radioactivity was measured in a gamma-counter and uptake values of organs were calculated as percentage of injected dose per gram tissue (% ID/g). To test the in vivo binding specificity, a group of mice was co-injected with 7.5 nmol of non-labelled peptide (NOTA-PEG4-RM26), and biodistribution was measured at 0.5 h after injection.

[1] = test system: GRPR-expressing PC-3 tumour xenograft; assay: in vivo; conditions: PC-3 xenograft
Procedure: as §1, §2

PC-3 cells [2] = assay: Cell-associated radioactivity in presence of lysosomotropic bases or sodium azide/2-deoxyglucose; format: cell-based, human; conditions: 1 nM, 100 µM chloroquine, 20 mM ammonium chloride, 2-8 h at 37 °C
Procedure: Additionally, PC-3 cells were incubated with 1 nM of [^125I]I-Tyr-PEG2-RM26 in presence of 20 mM sodium azide/10 mM 2-deoxyglucose at 37 °C for 8 h. […] At predetermined time points (2, 4, and 8 h), media from a set of three dishes was removed, cells were detached by trypsin-EDTA solution, re-suspended, and radioactivity in cells was measured.

[3] = Procedure: Lipophilicity was determined as the logarithm of partition coefficient, logP, of the radiolabelled compound between n-octanol and water. To determine the lipophilicity of both radioconjugates, 500 µL of n-octanol was added to a tube containing the same volume of Milli-Q water. 1 pmol (10 kBq) of radioconjugate was added. The mixture was vigorously vortexed for 1–2 min and then centrifuged. Aliquots of 100 μL were taken from each phase and their radioactivity was measured by an automated gamma-counter. The partition coefficient was calculated as the average log of a ratio of the radioactivity in organic and aqueous fractions. Each measurement was repeated in triplicate.
PC-3 cells [4] = assay: Cellular processing assay (membrane-bound and internalized radioactivity); format: cell-based, human; conditions: 1 nM, 37 °C
Procedure: At predetermined time points (1, 2, 4, 8, 24 h), incubation media was aspirated, cells were washed with serum-free media, and membrane-bound and internalized radioactivity were collected using the method described earlier. The membrane-bound radiolabelled conjugate were removed from cells by treatment with 4 M urea solution in a 0.1 M glycine buffer, pH 2, for 5 min on ice. The cell debris containing the internalized conjugate was detached by treatment with 1 M NaOH. Radioactivity of samples was measured, and percentage of membrane-bound, internalized and total radioactivity was calculated. The experiments were performed in triplicate.

[5] = HPLC
Procedure: In vitro stability of [^125I]I-Tyr-PEG2-RM26 was evaluated in PBS and in presence of 100-fold molar excess of sodium iodide (1 mM). After purification, samples of freshly labelled conjugate (10 µL, 0.01 nmol) were mixed with 1 µL of NaI and incubated at room temperature for 1 h. Control samples were mixed with equal volume of PBS. The experiment was performed in duplicates. The stability of [^125I]I-Tyr-PEG2-RM26 was analyzed by HPLC.

[6] = small intestine, small intestine

`CC(C)C[C@H](NC(=O)C[C@H](O)[C@H](CC(C)C)NC(=O)[C@H](Cc1c[nH]cn1)NC(=O)CNC(=O)[C@@H](NC(=O)[C@H](C)NC(=O)[C@H](Cc1c[nH]c2ccccc12)NC(=O)[C@H](CCC(N)=O)NC(=O)[C@@H](Cc1ccccc1)NC(=O)COCCOCCNC(=O)[C@@H](N)Cc1ccc(O)c(I)c1)C(C)C)C(N)=O` [[^125I]I-Tyr-PEG2-RM26] (H-[Tyr(3-I)][AEEA][dF]QWAVGH[Sta]L-NH2) gave a tissue to tissue ratio at 0.5 h (in vivo; tumour and bone) of 1.9 ± 0.2, a tissue to tissue ratio at 3 h (in vivo; tumour and bone) of 1.9 ± 0.3 and a tissue to tissue ratio at 0.5 h (in vivo; tumour and kidney) of 0.5. The tissue to tissue ratio at 3 h (in vivo; tumour and kidney) was 0.3 ± 0.1, the tissue to tissue ratio at 24 h (in vivo; tumour and kidney) was 0.1 and the tissue to tissue ratio at 0.5 h (in vivo; tumour and liver) was 0.8 ± 0.2. The tissue to tissue ratio at 3 h (in vivo; tumour and liver) was 0.8 ± 0.2, the tissue to tissue ratio at 24 h (in vivo; tumour and liver) was 0.6 ± 0.5 and the tissue to tissue ratio at 0.5 h (in vivo; tumour and lung) was 0.8. It also gave a tissue to tissue ratio at 3 h (in vivo; tumour and lung) of 0.6 ± 0.1, a tissue to tissue ratio at 24 h (in vivo; tumour and lung) of 1 ± 0.6 and a tissue to tissue ratio at 0.5 h (in vivo; tumour and muscle) of 3.6 ± 0.4. For the same compound, the tissue to tissue ratio at 3 h (in vivo; tumour and muscle) was 3.7 ± 0.6, the tissue to tissue ratio at 0.5 h (in vivo; tumour and pancreas) was 0.7 ± 0.1 and the tissue to tissue ratio at 3 h (in vivo; tumour and pancreas) was 0.9 ± 0.1. It also gave a tissue to tissue ratio at 0.5 h (in vivo; tumour and salivary gland) of 1.3 ± 0.6, a tissue to tissue ratio at 3 h (in vivo; tumour and salivary gland) of 1.2 ± 0.3 and a tissue to tissue ratio at 0.5 h (in vivo; tumour and small intestine) of 1.1 ± 0.6. It also gave a tissue to tissue ratio at 3 h (in vivo; tumour and small intestine) of 1.3 ± 0.4, a tissue to tissue ratio at 0.5 h (in vivo; tumour and spleen) of 1.3 ± 0.2 and a tissue to tissue ratio at 3 h (in vivo; tumour and spleen) of 1.1 ± 0.1. The tissue to tissue ratio at 0.5 h (in vivo; tumour and stomach) was 0.6 ± 0.2, the tissue to tissue ratio at 3 h (in vivo; tumour and stomach) was 0.5 ± 0.1 and the tissue to tissue ratio at 0.5 h (in vivo; tumour and thyroid) was 1 ± 0.5. For the same compound, the tissue to tissue ratio at 3 h (in vivo; tumour and thyroid) was 1.2 ± 0.6, the tissue to tissue ratio at 0.5 h (in vivo; tumour and whole blood) was 0.7 and the tissue to tissue ratio at 3 h (in vivo; tumour and whole blood) was 0.8 ± 0.1. The tissue to tissue ratio at 24 h (in vivo; tumour and whole blood) was 6 ± 4, the tissue uptake at 0.5 h (in vivo; blood, blood) was 10.2 ± 1.5 %ID/g and the tissue uptake at 3 h (in vivo; blood, blood) was 2.9 ± 1.5 %ID/g. It also gave a tissue uptake at 24 h (in vivo; blood, blood) of 0.02 %ID/g, a tissue uptake at 0.5 h (in vivo; bone, bone) of 3.8 ± 0.8 %ID/g and a tissue uptake at 3 h (in vivo; bone, bone) of 1.1 ± 0.5 %ID/g. The tissue uptake at 0.5 h (in vivo; kidney, kidney) was 13.2 ± 1.8 %ID/g, the tissue uptake at 3 h (in vivo; kidney, kidney) was 6.1 ± 1.1 %ID/g and the tissue uptake at 24 h (in vivo; kidney, kidney) was 1.5 ± 0.3 %ID/g. The tissue uptake at 0.5 h (in vivo; liver, liver) was 8.9 ± 3.1 %ID/g, the tissue uptake at 3 h (in vivo; liver, liver) was 2.6 ± 1.1 %ID/g and the tissue uptake at 24 h (in vivo; liver, liver) was 0.2 %ID/g. The tissue uptake at 0.5 h (in vivo; lung, lung) was 9.1 ± 1.2 %ID/g, the tissue uptake at 3 h (in vivo; lung, lung) was 3.5 ± 1.4 %ID/g and the tissue uptake at 24 h (in vivo; lung, lung) was 0.2 ± 0.1 %ID/g. For the same compound, the tissue uptake at 0.5 h (in vivo; muscle, muscle) was 2 %ID/g, the tissue uptake at 3 h (in vivo; muscle, muscle) was 0.6 ± 0.3 %ID/g and the tissue uptake at 0.5 h (in vivo; pancreas, pancreas) was 10.1 ± 1.2 %ID/g. The tissue uptake at 3 h (in vivo; pancreas, pancreas) was 2.3 ± 0.6 %ID/g, the tissue uptake at 0.5 h (in vivo; salivary gland, salivary gland) was 6.6 ± 3.7 %ID/g and the tissue uptake at 3 h (in vivo; salivary gland, salivary gland) was 2 ± 1.2 %ID/g. For the same compound, the tissue uptake at 0.5 h (in vivo; [6]) was 7.3 ± 3 %ID/g, the tissue uptake at 3 h (in vivo; [6]) was 1.8 ± 0.7 %ID/g and the tissue uptake at 0.5 h (in vivo; spleen, spleen) was 5.4 ± 0.8 %ID/g. The tissue uptake at 3 h (in vivo; spleen, spleen) was 2 ± 0.8 %ID/g, the tissue uptake at 0.5 h (in vivo; stomach, stomach) was 13.2 ± 7.2 %ID/g and the tissue uptake at 3 h (in vivo; stomach, stomach) was 4.6 ± 2.7 %ID/g. For the same compound, the tissue uptake at 24 h (in vivo; stomach, stomach) was 0.1 %ID/g, the tissue uptake at 0.5 h (in vivo; thyroid, thyroid) was 8.2 ± 3.7 %ID/g and the tissue uptake at 3 h (in vivo; thyroid, thyroid) was 2.2 ± 1.6 %ID/g. For the same compound, the tissue uptake at 0.5 h (in vivo; tumour, tumour, non-blocked) was 7 ± 0.8 %ID/g, the tissue uptake at 3 h (in vivo; tumour, tumour) was 2.1 ± 0.8 %ID/g and the “Decrease of tumour uptake at 3 h compared to 0.5 h after injection” value [1] was “more than 3 fold”. The “Cell-bound activity and retention in presence of chloroquine and ammonium chloride vs control” value (PC-3 cells [2]) was “considerably higher compared to control”, the logP [3] was 1 ± 0.1 and the Cellular processing pattern (PC-3 cells [4]) was “quite fast internalization during the first hour”. For the same compound, the “In vitro stability in presence of excess 1 mM NaI” value ([5]; 100-fold molar excess NaI, 1 h at room temperature) was 92 ± 3% and the “In vitro stability in PBS” value ([5]; 1 h incubation at room temperature) was 95 ± 1%.
